The values below come from US6060462A, “Electrophilic peptide analogs as inhibitors of trypsin-like enzymes” (DuPont Pharmaceuticals Company, priority 1997, dated 2000).

One test deals with T1, human factor Xa (Homo sapiens, UniProt P00742).
T1 construct: 0.2-0.5 nM human thrombin or human factor Xa; purchased Enzyme Research Laboratories, South Bend, Ind
As to the kind of experiment: Inhibition of Factor Xa hydrolysis of chromogenic substrate S2222 (Ki). The format is biochemical. The conditions noted are these: purified human factor Xa, 0.10 M sodium phosphate buffer. An outline of the steps:
(§1)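 Purified human proteases hydrolysed chromogenic substrates (thrombin S2238, Xa S2222, VIIa S2288), followed at 405 nm. Thrombin/Xa buffer: 0.10 M sodium phosphate pH 7.5, 0.20 M NaCl, 0.5% PEG 8000; VIIa: 0.05 M Tris pH 7.6, 0.10 M NaCl, 4 mM CaCl2, 0.1% BSA. Ki from velocities at 25–30 min.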

Another test concerns Thrombin time. As to the kind of experiment: Thrombin time (IC50), Table 80.
For test [1], the target named is T2, human thrombin (Homo sapiens, UniProt P00734). Kind of test: Inhibition of thrombin hydrolysis of chromogenic substrate S2238 (Ki). The format is biochemical. Also noted: 0.2-0.5 nM human thrombin or human factor Xa; purchased Enzyme Research Laboratories, South Bend, Ind. To be noted: purified human thrombin, 0.10 M sodium phosphate buffer, pH 7.5, read-out: Ki values for inhibition of Serine Proteases: Trombin. The method, boiled down:
as §1

Another test has as its target T3, human factor VIIa (Homo sapiens, UniProt P08709).
T3 construct: 50 nM human factor VIIa (BiosPacific, Emeryville, Calif.); purchased BiosPacific, Emeryville, Calif
T3 sequence (P08709 213-466 limits assumed): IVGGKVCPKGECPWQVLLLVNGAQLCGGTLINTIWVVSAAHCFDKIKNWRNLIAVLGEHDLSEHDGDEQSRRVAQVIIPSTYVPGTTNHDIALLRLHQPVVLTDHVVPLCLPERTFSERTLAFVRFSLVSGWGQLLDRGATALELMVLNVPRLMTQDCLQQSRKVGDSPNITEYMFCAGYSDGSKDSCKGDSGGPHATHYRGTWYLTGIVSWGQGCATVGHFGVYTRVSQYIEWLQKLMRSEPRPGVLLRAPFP
T3 sequence (P08709 61-212 partner limits assumed): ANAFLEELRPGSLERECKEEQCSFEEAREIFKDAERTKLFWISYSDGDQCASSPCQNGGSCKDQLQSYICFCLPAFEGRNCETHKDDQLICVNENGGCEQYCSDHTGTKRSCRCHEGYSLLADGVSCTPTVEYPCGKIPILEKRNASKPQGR
Kind of test: Inhibition of Factor VIIa hydrolysis of chromogenic substrate S2288 (Ki). Format: biochemical. To be noted: purified human factor VIIa, 0.05 M tris buffer, pH 7.6, read-out: Ki values for inhibition of Serine Proteases: Factor VIIa. An outline of the steps: as §1

Test [2] concerns the target T2, human thrombin. To be noted: literature value; cited from earlier work.
The target of a further test is thrombin. The conditions noted are these: literature value; cited from earlier work.
Setting [3] is: pH 7.5, read-out: Ki values for inhibition of Serine Proteases: Factor Xa.

Where a name gives a salt, the structure may show the parent alone. Read-outs that look alike come from different tables or passages of the source.

T1 sequence (P00742 235-488 limits assumed): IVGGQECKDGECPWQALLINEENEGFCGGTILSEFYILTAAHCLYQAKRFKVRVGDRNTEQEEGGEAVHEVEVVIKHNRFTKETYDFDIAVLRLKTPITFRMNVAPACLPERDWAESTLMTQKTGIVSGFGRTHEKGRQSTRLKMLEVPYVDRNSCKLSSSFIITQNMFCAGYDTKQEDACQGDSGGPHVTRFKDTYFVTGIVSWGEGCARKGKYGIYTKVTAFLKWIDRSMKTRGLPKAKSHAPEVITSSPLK
T1 sequence (P00742 41-179 partner limits assumed): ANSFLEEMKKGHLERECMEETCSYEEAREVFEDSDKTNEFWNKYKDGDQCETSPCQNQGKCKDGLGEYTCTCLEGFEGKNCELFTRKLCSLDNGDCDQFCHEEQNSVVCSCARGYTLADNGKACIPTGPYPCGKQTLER

One may read the Ki as the equilibrium dissociation constant of an inhibitor or competing ligand from its target. As usually defined, the IC50 is the concentration that inhibits the measured activity by half. High values mean lower potency, low ones higher potency. Take “Hydrocinnamoyl-[N-(Cyclopropyl)-Gly]-boroOrn(CH=NH)--OH HCl [Example 57.4.2]”: the Ki at human factor Xa (setting [3]) was < 50000 nM; on human thrombin [1], < 500 nM. Moreover, the concentration for half-maximal inhibition (IC50) in the test with Thrombin time is < 500 nM.
As to `NCCCCC(NC(=O)CN(CCc1ccccc1)C(=O)CCCC(=O)O)B(O)O` (stereo not shown) [Example 66.1.1, Glutaryl-[N-(Phenethyl)-Gly]-boroLys--OH HCl], the Ki was < 500 nM at human factor Xa (setting [3]), < 50000 nM on human factor VIIa and < 500 nM on human thrombin [1]. The IC50 in the test with Thrombin time is < 50000 nM.
Take `CC1(C)C2CC3OB(C(CCCCN)NC(=O)CN(CCc4ccccc4)C(=O)CNS(C)(=O)=O)OC3(C)C1C2` (stereo not shown) [Example 69.3.2, Methanesulfonyl-Gly-[N-(Phenethyl)-Gly]-boroLys-C10H16 HCl]: the Ki on human factor Xa (setting [3]), at human factor VIIa and at human thrombin [1] was < 500 nM in each case. For the same compound, the half-inhibitory concentration (IC50) with Thrombin time is < 500 nM.
Regarding `N=CNCCCC(NC(=O)CN(CCc1ccccc1)C(=O)CCc1ccccc1)B(O)O` (stereo not shown) [Example 49.1.3, Hydrocinnamoyl-[N-(Phenethyl)-Gly]-boroOrn(CH=NH)--OH HCl], the Ki at human factor Xa (setting [3]) and on human thrombin [1] was < 500 nM each time. Moreover, the IC50 in the test with Thrombin time is < 500 nM.
Consider `CN(CC(=O)NC(CCCCN)B1OC2CC3CC(C3(C)C)C2(C)O1)C(=O)c1ccccc1Sc1ccccc1C#N` (stereo not shown) [Example 62.4.3, (2-(2-Cyano)-Thiophenyl)-Benzoyl-Sar-boroLys-C10H16 HCl], for which the figures for the Ki on human factor Xa (setting [3]), at human factor VIIa and at human thrombin [1] were < 500 nM, < 50000 nM and < 500 nM, respectively. In addition, the IC50 with Thrombin time was < 50000 nM.
In the case of `CC1(C)C2CC3OB(C(CCCCN)NC(=O)CN(CCc4ccccc4C4CC4)C(=O)CCc4ccccc4)OC3(C)C1C2` (stereo not shown) [Example 54.1.2, Hydrocinnamoyl-[N-(2-(Cyclopropyl)-Phenethyl)-Gly]-boroLys-C10H16 HCl], the Ki is < 50000 nM on human factor Xa (setting [3]), < 500 nM at human factor VIIa and < 500 nM at human thrombin [1]. The IC50 with Thrombin time is < 500 nM.
`COC(=O)CCC(=O)N(CCc1ccccc1)CC(=O)NC(CCCCN)B(O)O` (stereo not shown) [Example 68.3.3, Methyl Succinyl-[N-(Phenethyl)-Gly]-boroLys--OH HCl]: the values for the Ki at human factor Xa (setting [3]), on human factor VIIa and on human thrombin [1] were < 50000 nM, < 50000 nM and < 500 nM, respectively. In addition, the IC50 in the test with Thrombin time is < 50000 nM.
`NCCCCC(NC(=O)CN(CCc1ccccc1C1CC1)C(=O)CCc1ccccc1)B(O)O` (stereo not shown) [Example 53.1.2, Hydrocinnamoyl-[N-(2-(Cyclopropyl)-Phenethyl)-Gly]-boroLys--OH HCl]: the Ki at human factor Xa (setting [3]), at human factor VIIa and on human thrombin [1] was < 500 nM each time. For the same compound, the IC50 with Thrombin time is < 500 nM.
With “Methanesulfonyl-Gly-[N-(N-(Methyl)-Benzyl)-Gly]-boroLys--OH HCl [Example 66.3.2]”, the Ki at human factor Xa (setting [3]), at human factor VIIa and at human thrombin [1] was < 500 nM in each case. The IC50 in the test on Thrombin time was < 500 nM.
For the compound “2-Thiophenyl-Benzoyl-Sar-boroLys(CH=NH)-C10H16 [Example 63.4.2]”, the values for the Ki on human factor Xa (setting [3]), at human factor VIIa and on human thrombin [1] were < 500 nM, < 50000 nM and < 500 nM, respectively. For the same compound, the IC50 with Thrombin time was < 50000 nM.
As to `N=C(N)NCCC[C@@H](C=O)NC(=O)[C@@H]1CCCN1C(=O)[C@H](N)Cc1ccccc1` [D-phenylalanyl-prolyl-arginal], the Ki on human thrombin [2] is 75 nM.
Consider “Hydrocinnamoyl-Sar-Lys[CH(OH)(OCH3)--C(=O)--OCH3] HCl [Example 61.4.1]”, for which the Ki was < 50000 nM on human factor Xa (setting [3]), < 50000 nM at human factor VIIa and < 500 nM at human thrombin [1]. In the test on Thrombin time, the IC50 was < 50000 nM.
In the case of `CC1(C)C2CC3OB(C(CCCCN)NC(=O)CN(CCc4ccccc4)C(=O)CCCC(=O)O)OC3(C)C1C2` (stereo not shown) [Example 69.1.1, Glutaryl-[N-(Phenethyl)-Gly]-boroLys-C10H16], the inhibitory constant (Ki) is < 500 nM on human factor Xa (setting [3]), < 50000 nM on human factor VIIa and < 500 nM at human thrombin [1]. Moreover, in the test on Thrombin time, the IC50 is < 50000 nM.
As for “2-Benzyl-(N-Benzyl)-Sar-boroLys--C10 H16 HCl [Example 64.1.1]”, the Ki is < 50000 nM at human factor Xa (setting [3]), < 50000 nM on human factor VIIa and < 500 nM on human thrombin [1]. The “IC50 Thrombin time” value in the test with Thrombin time was “Inactive”.
Turning to “2-(Thiophenyl)-Benzoyl-Sar-boroOrn(CH=NH)-C10H16 HCl [Example 63.4.1]”, the Ki at human factor Xa (setting [3]) was < 500 nM; at human factor VIIa it was < 50000 nM; at human thrombin [1], < 500 nM. For the same compound, the IC50 with Thrombin time is < 500 nM.
For the compound `NCCCCC(NC(=O)CN(C(=O)CCc1ccccc1)C1CC1)B(O)O` (stereo not shown) [Example 59.4.2, Hydrocinnamoyl-[N-(Cyclopropyl)-Gly]-boroLys--OH HCl], the Ki was < 50000 nM on human factor Xa (setting [3]) and < 500 nM at human thrombin [1]. Further, the IC50 in the test on Thrombin time was < 500 nM.
As to `CC1(C)C2CC3OB(C(CCCCN)NC(=O)CN(C(=O)CCc4ccccc4)C4CCCCC4)OC3(C)C1C2` (stereo not shown) [Example 54.4.3, Hydrocinnamoyl-[N-(Cyclohexyl)-Gly]-boroLys-C10H16 HCl], the values for the Ki on human factor Xa (setting [3]), at human factor VIIa and at human thrombin [1] were < 50000 nM, < 500 nM and < 500 nM, respectively. Further, in the test with Thrombin time, the IC50 was < 50000 nM.
Turning to `CC(C)(CN(CC(=O)NC(CCCCN)B(O)O)C(=O)CCc1ccccc1)c1ccccc1` (stereo not shown) [Example 53.1.1, Hydrocinnamoyl-[N-(2,2-dimethyl)-phenethyl-Gly]-boroLys--OH hydrochloride salt], the inhibitory constant (Ki) at human factor Xa (pH 7.5, hydrochloride salt, read-out: Ki values for inhibition of Serine Proteases: Factor Xa) was < 500 nM; at human factor VIIa it was < 500 nM; on human thrombin [1] it was < 500 nM. Also, the IC50 in the test with Thrombin time is < 500 nM.
In the case of `Cc1cccc(CCN(CC(=O)NC(CCCCN)B(O)O)C(=O)CCc2ccccc2)c1` (stereo not shown) [Example 52.1.2, Hydrocinnamoyl-[N-(3-methylphenethyl)-Gly]-boroLys--OH hydrochloride salt], the Ki at human factor Xa (setting [3]) is < 500 nM; on human factor VIIa it was < 50000 nM; at human thrombin [1], < 500 nM. Moreover, the IC50 with Thrombin time was < 500 nM.
With `CC1(C)C2CC3OB(C(CCCCN)NC(=O)CN(C(=O)CCc4ccccc4)C4CC4)OC3(C)C1C2` (stereo not shown) [Example 54.4.2, Hydrocinnamoyl-[N-(Cyclopropyl)-Gly]-boroLys-C10H16 HCl], the Ki at human factor Xa (setting [3]) was < 50000 nM; at human factor VIIa, < 500 nM; at human thrombin [1], < 500 nM. The IC50 in the test with Thrombin time is < 500 nM.
As to `COC(=O)CCCC(=O)N(CCc1ccccc1)CC(=O)NC(CCCCN)B(O)O` (stereo not shown) [Example 68.4.1, Methyl Glutaryl-[N-(Phenethyl)-Gly]-boroLys--OH HCl], the results for the Ki at human factor Xa (setting [3]), at human factor VIIa and at human thrombin [1] were < 500 nM, < 50000 nM and < 500 nM, respectively. Also, in the test on Thrombin time, the IC50 was < 50000 nM.
As to `N#CC(CCCNC(=N)N)NC(=O)[C@@H]1CCCN1C(=O)[C@H](N)Cc1ccccc1` (stereo partly drawn) [D-phenylalanyl-prolyl-NHCH((CH2)3 NHC(=NH)NH2)--CN], the Ki at thrombin was 700 nM.
